Consider 2 molecules from PubChem BioAssay AID1259411 (Chemical Carcinogenesis Research Information System (CCRIS), 2018).

The structures appear in SMILES notation. Calls of active or inactive are those of the source. The rule behind the calls is not given here.

The data set has as its system rodent carcinogenicity bioassays, tumor incidence. As to the kind of experiment: CCRIS carcinogenicity studies. The note with it: Dose: 0, Dose: 0. A digest of the protocol: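 NCI-built, expert-reviewed records of carcinogenicity and related test outcomes (mutagenicity, tumor promotion/inhibition) compiled from published and report sources, historical span 1985-2011, not updated.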

For the molecule `ClCCl`, the carcinogen call runs as follows: (Species: HAMSTER, Strain/Sex: SYRIAN/FEMALE, Route: INHALATION, 500, 1500, 3500 PPM IN AIR 6H/D 5D/WK FOR 104 WK (STUDY DURATION: 2 YR), 500, 1500, 3500 PPM IN AIR 6H/D 5D/WK FOR 104 WK (STUDY DURATION: 2 YR)) “inactive; negative”; (Species: HAMSTER, Strain/Sex: SYRIAN/MALE, Route: INHALATION, 500, 1500, 3500 PPM IN AIR 6H/D 5D/WK FOR 104 WK (STUDY DURATION: 2 YR), 500, 1500, 3500 PPM IN AIR 6H/D 5D/WK FOR 104 WK (STUDY DURATION: 2 YR)) “inactive; negative”; (Species: MOUSE, Strain/Sex: B6C3F1/FEMALE, Route: INHALATION, 2000, 4000 PPM 6 HR/D, 5 D/WK FOR 102 WK, 2000, 4000 PPM 6 HR/D, 5 D/WK FOR 102 WK, Tumor Site: Type of Lesion: LUNG: ALVEOLAR/BRONCHIOLAR ADENOMA, ALVEOLAR/BRONCHIOLAR CARCINOMA, LIVER: HEPATOCELLULAR ADENOMA, HEPATOCELLULAR CARCIN) “active; positive”; (Species: MOUSE, Strain/Sex: B6C3F1/FEMALE, Route: INHALATION, 2000 PPM 6 HR/D 5 D/WK FOR 26 WK FOLLOWED BY CHAMBER AIR EXPOSURE FOR 78 WK (STUDY DURATION: 104 WK), Tumor Site: Type of Lesion: LUNG: ADENOMA OR CARCINOMA) “active; positive”; (Species: MOUSE, Strain/Sex: B6C3F1/FEMALE, Route: INHALATION, 2000 PPM 6 HR/D 5 D/WK FOR 26 WK FOLLOWING A 78 WK EXPOSURE TO CHAMBER AIR (STUDY DURATION: 104 WK)) “inactive; negative”; (Species: MOUSE, Strain/Sex: B6C3F1/FEMALE, Route: INHALATION, 2000 PPM 6 HR/D 5 D/WK FOR 52 WK FOLLOWED BY CHAMBER AIR EXPOSURE FOR 52 WK (STUDY DURATION: 104 WK), Tumor Site: Type of Lesion: LUNG: ADENOMA OR CARCINOMA, LIVER: ADENOMA OR CARCINOMA) “active; positive”. The carcinogen call is “inactive; negative” (Species: MOUSE, Strain/Sex: B6C3F1/FEMALE, Route: INHALATION, 2000 PPM 6 HR/D 5 D/WK FOR 52 WK FOLLOWING A 52 WK EXPOSURE TO CHAMBER AIR (STUDY DURATION: 104 WK)); “active; positive” (Species: MOUSE, Strain/Sex: B6C3F1/FEMALE, Route: INHALATION, 2000 PPM 6 HR/D 5 D/WK FOR 78 WK FOLLOWED BY CHAMBER AIR EXPOSURE FOR 26 WK (STUDY DURATION: 104 WK), Tumor Site: Type of Lesion: LUNG: ADENOMA OR CARCINOMA, LIVER: ADENOMA OR CARCINOMA); “active; positive” (Species: MOUSE, Strain/Sex: B6C3F1/FEMALE, Route: INHALATION, 2000 PPM 6 HR/D 5 D/WK FOR 78 WK FOLLOWING A 26 WK EXPOSURE TO CHAMBER AIR (STUDY DURATION: 104 WK), Tumor Site: Type of Lesion: LUNG: ADENOMA OR CARCINOMA, LIVER: ADENOMA OR CARCINOMA); “active; positive” (Species: MOUSE, Strain/Sex: B6C3F1/FEMALE, Route: INHALATION, 2000 PPM 6 HR/D 5 D/WK FOR 104 WK (STUDY DURATION: 104 WK), Tumor Site: Type of Lesion: LIVER: ADENOMA, CARCINOMA, LUNG: ADENOMA, CARCINOMA); “active; positive” (Species: MOUSE, Strain/Sex: B6C3F1/FEMALE, Route: INHALATION, 2000 PPM 6 HR/D 5 D/WK FOR 104 WK (STUDY DURATION: 104 WK), Tumor Site: Type of Lesion: LUNG: ADENOMA OR CARCINOMA, LIVER: ADENOMA OR CARCINOMA); “active; positive” (Species: MOUSE, Strain/Sex: B6C3F1/MALE, Route: INHALATION, 2000, 4000 PPM 6 HR/D, 5 D/WK FOR 102 WK, 2000, 4000 PPM 6 HR/D, 5 D/WK FOR 102 WK, Tumor Site: Type of Lesion: LUNG: ALVEOLAR/BRONCHIOLAR ADENOMA, ALVEOLAR/BRONCHIOLAR CARCINOMA, LIVER: HEPATOCELLULAR ADENOMA, HEPATOCELLULAR CARCIN). For the same molecule, the carcinogen call (Species: MOUSE, Strain/Sex: SWISS/FEMALE, Route: GAVAGE, 100, 500 MG/KG IN OLIVE OIL 1/D 5 D/WK FOR 64 WK (STUDY DURATION: LIFETIME), 100, 500 MG/KG IN OLIVE OIL 1/D 5 D/WK FOR 64 WK (STUDY DURATION: LIFETIME)) was “inactive; negative”; the carcinogen call (Species: RAT, Strain/Sex: F344/FEMALE, Route: INHALATION, 1000, 2000, 4000 PPM 6 HR/D, 5 D/WK FOR 102 WK, 1000, 2000, 4000 PPM 6 HR/D, 5 D/WK FOR 102 WK, Tumor Site: Type of Lesion: MAMMARY GLAND: FIBROADENOMA, ADENOMA OR FIBROADENOMA, HEMATOPOIETIC SYSTEM (LEUKEMIA): MONONUCLEAR CELL LEUKEMIA) is “active; positive”; the carcinogen call (Species: RAT, Strain/Sex: F344/MALE, Route: INHALATION, 1000, 2000, 4000 PPM 6 HR/D, 5 D/WK FOR 102 WK, 1000, 2000, 4000 PPM 6 HR/D, 5 D/WK FOR 102 WK, Tumor Site: Type of Lesion: MAMMARY GLAND: FIBROADENOMA, ADENOMA OR FIBROADENOMA, TUNICA VAGINALIS: MESOTHELIOMA, MULTIPLE SITES: MESOTHELIOMA, Tumor Site: Type of Lesion: MAMMARY GLAND: FIBROADENOMA, ADENOMA OR FIBROADENOMA, TUNICA VAGINALIS: MESOTHELIOMA, MULTIPLE SITES: MESOTHELIOMA) was “active; positive”; the carcinogen call (Species: RAT, Strain/Sex: SPRAGUE-DAWLEY/FEMALE, Route: GAVAGE, 100, 500 MG/KG IN OLIVE OIL 1/D 5 D/WK FOR 64 WK (STUDY DURATION: LIFETIME), 100, 500 MG/KG IN OLIVE OIL 1/D 5 D/WK FOR 64 WK (STUDY DURATION: LIFETIME)) was “inactive; negative”; the carcinogen call (Species: RAT, Strain/Sex: SPRAGUE-DAWLEY/FEMALE, Route: INHALATION, 100 PPM 4 HR/D 5 D/WK FOR 7 WK THEN 7 HR/D 5 D/WK FOR 97 WK BEGINNING WHEN RATS WERE 12 DAY OLD EMBRYOS (STUDY DURATI) was “inactive; negative”; the carcinogen call (Species: RAT, Strain/Sex: SPRAGUE-DAWLEY/FEMALE, Route: INHALATION, 500, 1500, 3500 PPM IN AIR 6H/D 5D/WK FOR 104 WK (STUDY DURATION: 2 YR), 500, 1500, 3500 PPM IN AIR 6H/D 5D/WK FOR 104 WK (STUDY DURATION: 2 YR)) was “inactive; negative”. In addition, the carcinogen call (Species: RAT, Strain/Sex: SPRAGUE-DAWLEY/MALE, Route: GAVAGE, 100, 500 MG/KG IN OLIVE OIL 1/D 5 D/WK FOR 64 WK (STUDY DURATION: LIFETIME), 100, 500 MG/KG IN OLIVE OIL 1/D 5 D/WK FOR 64 WK (STUDY DURATION: LIFETIME)) was “inactive; negative”; the carcinogen call (Species: RAT, Strain/Sex: SPRAGUE-DAWLEY/MALE, Route: INHALATION, 100 PPM 4 HR/D 5 D/WK FOR 7 WK THEN 7 HR/D 5 D/WK FOR 97 WK BEGINNING WHEN RATS WERE 12 DAY OLD EMBRYOS (STUDY DURATI) is “inactive; negative”; the carcinogen call (Species: RAT, Strain/Sex: SPRAGUE-DAWLEY/MALE, Route: INHALATION, 500, 1500, 3500 PPM IN AIR 6H/D 5D/WK FOR 104 WK (STUDY DURATION: 2 YR), 500, 1500, 3500 PPM IN AIR 6H/D 5D/WK FOR 104 WK (STUDY DURATION: 2 YR), Tumor Site: Type of Lesion: SALIVARY GLAND: SARCOMA) is “active; positive”.

With `Cc1ccccc1`, the carcinogen call by setting is: (Species: MOUSE, Strain/Sex: B6C3F1/FEMALE, Route: INHALATION, 120, 600, 1200 PPM 6.5 HR/D 5 D/WK FOR 103 WK (STUDY DURATION: 104 WK), 120, 600, 1200 PPM 6.5 HR/D 5 D/WK FOR 103 WK (STUDY DURATION: 104 WK)) “inactive; negative”; (Species: MOUSE, Strain/Sex: B6C3F1/MALE, Route: INHALATION, 120, 600, 1200 PPM 6.5 HR/D 5 D/WK FOR 103 WK (STUDY DURATION: 104 WK), 120, 600, 1200 PPM 6.5 HR/D 5 D/WK FOR 103 WK (STUDY DURATION: 104 WK)) “inactive; negative”; (Species: RAT, Strain/Sex: F344/FEMALE, Route: INHALATION, 600, 1200 PPM 6.5 HR/D 5 D/WK FOR 103 WK (STUDY DURATION: 104 WK), 600, 1200 PPM 6.5 HR/D 5 D/WK FOR 103 WK (STUDY DURATION: 104 WK)) “inactive; negative”; (Species: RAT, Strain/Sex: F344/MALE, Route: INHALATION, 600, 1200 PPM 6.5 HR/D 5 D/WK FOR 103 WK (STUDY DURATION: 104 WK), 600, 1200 PPM 6.5 HR/D 5 D/WK FOR 103 WK (STUDY DURATION: 104 WK)) “inactive; negative”; (Species: RAT, Strain/Sex: STRAIN-CD/MALE, Route: INTRAGASTRIC, 500 MG/KG IN OLIVE OIL 1/D 4-5 D/WK FOR 104 WK (STUDY DURATION: 104 WK)) “inactive; negative”.
